Among the test systems are HCT-15 colon; HOP-62 NSCLC; NCI-H460 lung; OVCAR-4 ovarian; RPMI-8226 leukemia; SF-268 CNS; U251 CNS; UACC-62 melanoma; T-47D breast; BT-549 breast.
What all share (assay): inhibition of tumour cell growth, NCI panel, 48 h

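Cells were grown in 96-well plates and exposed to each compound for 48 hours at five concentrations; endpoints were interpolated linearly between bracketing concentrations, or set to the highest concentration if not reached. Definition used: TGI = concentration required for complete inhibition of growth.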

Data on 16 compounds can be found in PubChem BioAssay (NCI).

Consider `N#CC(NNC(=O)c1ccccc1O)c1ccccc1O` (centres undefined), for which the TGI in the assay on HCT-15 colon, in the assay with HOP-62 NSCLC, with NCI-H460 lung, with OVCAR-4 ovarian, in the assay on RPMI-8226 leukemia and in the assay with SF-268 CNS was more than 100 µM in each case. The TGI is more than 100 µM in the assay with U251 CNS and 16.9 µM in the assay on UACC-62 melanoma.

Consider `Cc1nnc(NS(=O)(=O)c2ccc(N=Nc3c(O)c(C(=O)O)cc4ccccc34)cc2)s1`, for which the TGI in the assay on HCT-15 colon, in the assay with HOP-62 NSCLC, in the assay on NCI-H460 lung, in the assay on OVCAR-4 ovarian, with RPMI-8226 leukemia and with SF-268 CNS was more than 100 µM in each case. The TGI with T-47D breast, in the assay on U251 CNS and with UACC-62 melanoma was more than 100 µM in each case.

Consider `NC(Cc1c2ccccc2cc2ccccc12)C(=O)O` (centres undefined), for which the TGI in the assay with HCT-15 colon, with HOP-62 NSCLC, in the assay with NCI-H460 lung, in the assay with OVCAR-4 ovarian, in the assay with SF-268 CNS and with T-47D breast was more than 100 µM each time. Also, the TGI in the assay with U251 CNS and in the assay on UACC-62 melanoma was more than 100 µM each time.

In the case of `O=C(O)OC12CCCCCC1C(=O)C1CCCCC12` (centres undefined), the TGI in the assay on HCT-15 colon, with HOP-62 NSCLC, in the assay on NCI-H460 lung, in the assay with OVCAR-4 ovarian, in the assay with RPMI-8226 leukemia and in the assay on SF-268 CNS was more than 100 µM in each case. Also, the TGI in the assay on U251 CNS and with UACC-62 melanoma was more than 100 µM throughout.

Turning to `COC(=O)c1c(O)ccc2c1c1c(n2CCc2ccccc2)C(=O)c2ccccc2C1`, the TGI with BT-549 breast came to 63.1 µM; in the assay with HCT-15 colon it was 63.8 µM; in the assay on HOP-62 NSCLC, 52.3 µM; with NCI-H460 lung, 48.3 µM; in the assay on OVCAR-4 ovarian it was 41.4 µM; in the assay on RPMI-8226 leukemia, 34 µM. Moreover, the TGI was determined as 41 µM in the assay with SF-268 CNS, 80.3 µM in the assay on U251 CNS and 37.2 µM with UACC-62 melanoma.

`COC(=O)C(Cc1ccc2c(c1)OCO2)(NC(=O)c1ccccc1)P(=O)(OC)OC` (centres undefined): the TGI in the assay with HCT-15 colon, in the assay on HOP-62 NSCLC, in the assay on NCI-H460 lung, in the assay on OVCAR-4 ovarian, with RPMI-8226 leukemia and in the assay on SF-268 CNS was more than 100 µM in each case. In addition, the TGI in the assay on U251 CNS and in the assay on UACC-62 melanoma was more than 100 µM in each case.

Turning to `CCCCCCCC(=O)N1C2CC3CCC2(CS1(=O)=O)C3(C)C` (centres undefined), the TGI in the assay with BT-549 breast was 71.6 µM; in the assay with HCT-15 colon it was 26.7 µM; in the assay with HOP-62 NSCLC, 44.3 µM; in the assay with NCI-H460 lung it was more than 100 µM; in the assay with OVCAR-4 ovarian, more than 100 µM; in the assay with RPMI-8226 leukemia, 41.5 µM. The TGI with SF-268 CNS is more than 100 µM; in the assay with U251 CNS, 69.9 µM; in the assay with UACC-62 melanoma it was 55.5 µM.

Take `O=C1OCC2=C1C(c1ccc(Cl)cc1)c1cc3c(cc1O2)OCO3` (centres undefined): the TGI with HCT-15 colon was more than 100 µM; with HOP-62 NSCLC, more than 35.4 µM; in the assay on NCI-H460 lung, more than 100 µM; with OVCAR-4 ovarian, more than 100 µM; with RPMI-8226 leukemia it was more than 100 µM; with SF-268 CNS it was more than 100 µM. Also, the TGI in the assay on T-47D breast and in the assay on UACC-62 melanoma was more than 100 µM in each case.

Regarding `COc1ccc(N(c2ccc(C#N)cc2)c2ccc(C#N)cc2)cc1`, the TGI in the assay on BT-549 breast, in the assay on HCT-15 colon, in the assay on HOP-62 NSCLC, in the assay on NCI-H460 lung, in the assay with OVCAR-4 ovarian and with SF-268 CNS was more than 100 µM in each case. For the same compound, the TGI in the assay on T-47D breast is 77.6 µM; in the assay on U251 CNS, more than 100 µM; with UACC-62 melanoma, more than 100 µM.

Consider `CCCCCCCCCCCCOC(=N)N1CCOCC1`, for which the TGI worked out at 16.3 µM with HCT-15 colon; 33.3 µM in the assay with HOP-62 NSCLC; 30.2 µM in the assay with NCI-H460 lung; 21.2 µM in the assay on OVCAR-4 ovarian; 5.15 µM with RPMI-8226 leukemia; 30.4 µM with SF-268 CNS. In addition, the TGI in the assay on U251 CNS is 21.9 µM; in the assay with UACC-62 melanoma, 24.7 µM.

On to `N#Cc1nc(CCC(C(=O)O)N2C(=O)c3ccccc3C2=O)oc1N` (centres undefined), for which the TGI in the assay with HCT-15 colon, in the assay with HOP-62 NSCLC, in the assay on NCI-H460 lung, in the assay on OVCAR-4 ovarian, in the assay on RPMI-8226 leukemia and in the assay with SF-268 CNS was more than 100 µM each time. For the same compound, the TGI in the assay on T-47D breast, in the assay with U251 CNS and in the assay on UACC-62 melanoma was more than 100 µM each time.

As to `COc1nc2c(c(=O)[nH]1)N=C(c1ccc([N+](=O)[O-])cc1)CC(c1ccccc1)N2` (centres undefined), the TGI in the assay on BT-549 breast, with HOP-62 NSCLC, with NCI-H460 lung, in the assay on OVCAR-4 ovarian, with RPMI-8226 leukemia and in the assay with U251 CNS was more than 100 µM in each case. In addition, in the assay with UACC-62 melanoma, the TGI is more than 100 µM.

As for `Cc1cccc2c(=O)c3cccc(CC(=O)O)c3oc12`, the TGI in the assay on HCT-15 colon, with HOP-62 NSCLC, in the assay on NCI-H460 lung, in the assay on OVCAR-4 ovarian, with RPMI-8226 leukemia and in the assay on SF-268 CNS was more than 100 µM in each case. Besides, the TGI in the assay on T-47D breast, in the assay with U251 CNS and in the assay on UACC-62 melanoma was more than 100 µM in each case.

For `C=C1C(=O)O[C@H]2[C@@H]3O[C@@](C)(CC/C=C(\C)CCC[C@@H]2C)[C@H](O)C[C@@H]13`, the TGI with BT-549 breast is 8.1 µM; in the assay on HCT-15 colon it was 24.4 µM; with HOP-62 NSCLC, 23.1 µM; in the assay on OVCAR-4 ovarian it was 34.8 µM; with SF-268 CNS, more than 100 µM; in the assay on T-47D breast, 16.8 µM. In addition, the results for the TGI in the assay with U251 CNS and with UACC-62 melanoma were more than 100 µM and 20.9 µM, respectively.

With `CSc1cnc2ccccc2c1Sc1cn(C)c2ccccc2c1=O`, the TGI is more than 100 µM in the assay with HCT-15 colon; 57.3 µM with HOP-62 NSCLC; more than 100 µM in the assay on NCI-H460 lung; more than 100 µM in the assay on OVCAR-4 ovarian; more than 100 µM in the assay with RPMI-8226 leukemia; more than 100 µM in the assay on SF-268 CNS. Further, the TGI was 38.6 µM in the assay on U251 CNS and more than 100 µM with UACC-62 melanoma.

Turning to `O=c1[nH]c2ccccc2c(=O)c2cc3ccccc3cc12`, the TGI in the assay on BT-549 breast is 45.2 µM; in the assay with HCT-15 colon, more than 100 µM; in the assay with HOP-62 NSCLC, 25.9 µM; in the assay on NCI-H460 lung it was 53.6 µM; with OVCAR-4 ovarian, more than 100 µM; in the assay with SF-268 CNS, 28.2 µM. Also, the TGI with T-47D breast is more than 100 µM; with U251 CNS, 21.4 µM; in the assay with UACC-62 melanoma, more than 100 µM.
